Reference: patent publication EP0100158A2, “(3-pyridinyl)heteroalkarylalkanols, alkanoic acids and esters” (THE UPJOHN COMPANY, priority 1982, dated 1984)

Target: T1, TXA2 synthetase (Homo sapiens, UniProt P24557)
T1 construct: generated by mixing prostaglandin H2 (PGH2) with human platelet microsomes (HPM); from tissue; host or cells: human platelet microsomes
T1 sequence (P24557 1-533): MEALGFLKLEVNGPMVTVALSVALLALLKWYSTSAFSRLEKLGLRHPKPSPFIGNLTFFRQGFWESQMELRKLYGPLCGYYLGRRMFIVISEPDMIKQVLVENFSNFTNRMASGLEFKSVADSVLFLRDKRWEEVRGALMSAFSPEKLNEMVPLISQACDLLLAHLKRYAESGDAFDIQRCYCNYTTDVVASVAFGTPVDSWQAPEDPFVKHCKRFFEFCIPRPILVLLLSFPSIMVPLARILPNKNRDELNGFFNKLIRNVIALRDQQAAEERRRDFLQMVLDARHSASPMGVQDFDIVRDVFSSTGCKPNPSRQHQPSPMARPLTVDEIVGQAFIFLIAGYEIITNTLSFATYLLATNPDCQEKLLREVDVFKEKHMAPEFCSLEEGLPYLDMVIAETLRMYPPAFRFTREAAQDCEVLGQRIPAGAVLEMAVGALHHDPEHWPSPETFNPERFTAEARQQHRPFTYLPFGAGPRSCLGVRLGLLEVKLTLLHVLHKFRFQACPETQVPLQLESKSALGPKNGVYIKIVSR
Experiment: TXA2 inhibition test: TXA2 generated from PGH2 with human platelet microsomes, response measured on superfused rabbit aortic strips
Assay type: biochemical
Settings: inhibition of TXA2 formation; test compound added to human platelet microsomes 5 minutes before mixing with PGH2; rabbit aorta readout; read-out: approximate ED50's (converted)
Method: The compounds of the present invention were tested for TXAz inhibition as follows: • Rabbit aortic strips were superfused in series with Krebs solution. Thromboxane Az (TXA2) was generated by mixing prostaglandin H2 (PGH2) with human platelet microsomes (HPM).
Potential inhibitors were tested by comparing the response of the rabbit aorta to the amount of TXAz produced by mixing PGH2 and HPM without the test compound in the reaction medium and then the amount of TXAz produced when the test compound was added to the HPM 5 minutes before the HPM was mixed with PGH2.

IC50: ~37.6 nM
Compound: O=C(O)c1cc(CNc2cccnc2)ccc1O
